Laboratory results as given in patent US20100184758A1, “BETA CARBOLINE DERIVATIVES AS ANTIDIABETIC COMPOUNDS” (priority 2007, published 2010).

How the values were obtained:
Assay type in all cases: in vivo, mouse
[1] = system: C57BL/6N mice; experiment: Glucose tolerance test in mice; conditions: wild type mice containing intact, functional SSTR3
Protocol: (§1) Male C57BL/6N mice (7-12 weeks of age) are housed 10 per cage and given access to normal diet rodent chow and water ad libitum. Mice are randomly assigned to treatment groups and fasted 4 to 6 h. Baseline blood glucose concentrations are determined by glucometer from tail nick blood. Animals are then treated orally with vehicle (0.25% methylcellulose) or test compound. Blood glucose concentration is measured at a set time point after treatment (t=0 min) and mice are then challenged with dextrose intraperitoneally- (2-3 g/kg) or orally (3-5 g/kg). One group of vehicle-treated mice is challenged with saline as a negative control. Blood glucose levels are determined from tail bleeds taken at 20, 40, 60 minutes after dextrose challenge. […] Percent inhibition values for each treatment are generated from the AUC data normalized to the saline-challenged controls. A similar assay may be performed in rats.

[2] = system: SSTR3 knock out mice; experiment: Glucose tolerance test in SSTR3 gene knockout mice; conditions: oral dose in the range of 1 to 30 mg/kg po
Protocol: as §1
In order to assess the selectivity of blockade of SSTR3, compounds were evaluated in the oral glucose tolerance test (oGTT) described above in mice lacking the gene for a functional SSTR3.

[3] = system: C57BL/6N mice; experiment: Oral glucose tolerance test in mice, SSTR3 antagonist combined with DPP-4 inhibitor; conditions: suboptimal doses 0.001 to 0.1 mg/kg po with low doses of a DPP-4 inhibitor such as sitagliptin and des-fluoro-sitagliptin
Protocol: Compounds of the present invention were combined with dipeptidyl peptidase-IV (DPP-4) inhibitors in oral glucose tolerance test (oGTT) described above. Male C57BL/6N mice (7-12 weeks of age) were housed 10 per cage and given access to normal rodent chow and water ad libitum. Mice were randomly assigned to treatment groups and fasted 4 to 6 h. Baseline blood glucose concentrations were determined by glucometer from tail nick blood. […] Blood glucose concentration was measured at a set time point after treatment (t=0 min) and mice were then challenged with dextrose intraperitoneally (2-3 g/kg) or orally (3-5 g/kg). One group of vehicle-treated mice was challenged with saline as a negative control. Blood glucose levels were determined from tail bleeds taken at 20, 40, 60 min after dextrose challenge. […] Percent inhibition values for each treatment were generated from the AUC data normalized to the saline-challenged controls.

| SMILES | inhibition of glucose excursion in oGTT [1] | inhibition of glucose excursion in oGTT [2] | activity in oGTT in combination with a DPP-4 inhibitor versus alone [3] |
| --- | --- | --- | --- |
| Cc1nc(C2N[C@@H](c3nc(-c4ccc(F)cc4)c[nH]3)Cc3c2[nH]c2ccccc32)no1 (stereo partly drawn) [Example 17, (3R)-3-[4-(4-Fluorophenyl)-1H-imidazol-2-yl]-1-(5-methyl-1,2,4-oxadiazol-3-yl)-2,3,4,9-tetrahydro-1H-β-carboline] | inhibit glucose excursion | failed to significantly inhibit glucose excursion | – |
| CCOCC1(c2cnn(C)c2)N[C@@H](c2nc(-c3ccc(F)cc3)c[nH]2)Cc2c1[nH]c1ccccc21 (stereo partly drawn) [Example 20, (3R)-[4-(4-Fluorophenyl)-1H-imidazol-2-yl]-1-(ethoxymethyl)-1-(1-methyl-1H-pyrazol-4-yl)-2,3,4,9-tetrahydro-1H-β-carboline] | inhibit glucose excursion | failed to significantly inhibit glucose excursion | more active in combination with low doses of a DPP-4 inhibitor |
| Cc1nc(C2(c3cnn(C)c3)N[C@@H](c3nc(-c4ccc(F)cc4)c[nH]3)Cc3c2[nH]c2ccccc32)no1 (stereo partly drawn) [Example 21, (3R)-[4-(4-Fluorophenyl)-1H-imidazol-2-yl]-1-(5-methyl-1,2,4-oxadiazol-3-yl)-1-(1-methyl-1H-pyrazol-4-yl)-2,3,4,9-tetrahydro-1H-β-carboline] | inhibit glucose excursion | – | – |
